PMC7377474, “Preclinical characterization of CPL302-253, a selective inhibitor of PI3Kδ, as the candidate for the inhalatory treatment and prevention of Asthma” (PLoS ONE, 2020)
“And” between values parts separate entries of the source, which are not always exact repeats. Equal entries are not always repeated. Where two headings read alike, the source gives them in different places.

Assays:
in vitro = assay type: cell-based; details: human
Method: (§1) The study was performed by Cyprotex according to service provider’s protocol. In brief NHBE cells were plated on 96-well plate. The cells were dosed with test compound at 0.0457, 0.137, 0.412, 1.24, 3.7, 11.1, 33.3, 100 μM and incubated for 48 h. The cells were loaded with dye or antibody relevant for each health marker and scanned using fluorescent cell imager. The following parameters were studied: cell count, nuclear size, DNA structure, mitochondrial mass, mitochondrial membrane potential, oxidative stress, glutathione content. The baseline for each parameter was determined based on vehicle control sample. The software calculates the percentage of cells that are low or high responders (depending on the biological significance of a particular readout). The vehicle control wells are then used to determine significance limits for wells that have a greater than expected fraction of low or high responders. The minimum effective concentration was determined from the lowest concentration whose mean value exceeds the significance level and provided either a clear dose-response relationship or at least two consecutive concentration points past the significance level.

[1] = tested on: Normal Human Bronchial Epithelial (NHBE) cells; experiment: in vitro; assay type: cell-based; details: 48 h
Method: as §1

NAV1.5 = molecular target: T1, NAV1.5 (Homo sapiens, UniProt Q14524); experiment: SafetyScan44; assay type: cell-based; details: 10 μM; Blocker mode
T1 construct: purchased DiscoverX (Eurofins) SafetyScan44
T1 sequence (Q14524 whole entry): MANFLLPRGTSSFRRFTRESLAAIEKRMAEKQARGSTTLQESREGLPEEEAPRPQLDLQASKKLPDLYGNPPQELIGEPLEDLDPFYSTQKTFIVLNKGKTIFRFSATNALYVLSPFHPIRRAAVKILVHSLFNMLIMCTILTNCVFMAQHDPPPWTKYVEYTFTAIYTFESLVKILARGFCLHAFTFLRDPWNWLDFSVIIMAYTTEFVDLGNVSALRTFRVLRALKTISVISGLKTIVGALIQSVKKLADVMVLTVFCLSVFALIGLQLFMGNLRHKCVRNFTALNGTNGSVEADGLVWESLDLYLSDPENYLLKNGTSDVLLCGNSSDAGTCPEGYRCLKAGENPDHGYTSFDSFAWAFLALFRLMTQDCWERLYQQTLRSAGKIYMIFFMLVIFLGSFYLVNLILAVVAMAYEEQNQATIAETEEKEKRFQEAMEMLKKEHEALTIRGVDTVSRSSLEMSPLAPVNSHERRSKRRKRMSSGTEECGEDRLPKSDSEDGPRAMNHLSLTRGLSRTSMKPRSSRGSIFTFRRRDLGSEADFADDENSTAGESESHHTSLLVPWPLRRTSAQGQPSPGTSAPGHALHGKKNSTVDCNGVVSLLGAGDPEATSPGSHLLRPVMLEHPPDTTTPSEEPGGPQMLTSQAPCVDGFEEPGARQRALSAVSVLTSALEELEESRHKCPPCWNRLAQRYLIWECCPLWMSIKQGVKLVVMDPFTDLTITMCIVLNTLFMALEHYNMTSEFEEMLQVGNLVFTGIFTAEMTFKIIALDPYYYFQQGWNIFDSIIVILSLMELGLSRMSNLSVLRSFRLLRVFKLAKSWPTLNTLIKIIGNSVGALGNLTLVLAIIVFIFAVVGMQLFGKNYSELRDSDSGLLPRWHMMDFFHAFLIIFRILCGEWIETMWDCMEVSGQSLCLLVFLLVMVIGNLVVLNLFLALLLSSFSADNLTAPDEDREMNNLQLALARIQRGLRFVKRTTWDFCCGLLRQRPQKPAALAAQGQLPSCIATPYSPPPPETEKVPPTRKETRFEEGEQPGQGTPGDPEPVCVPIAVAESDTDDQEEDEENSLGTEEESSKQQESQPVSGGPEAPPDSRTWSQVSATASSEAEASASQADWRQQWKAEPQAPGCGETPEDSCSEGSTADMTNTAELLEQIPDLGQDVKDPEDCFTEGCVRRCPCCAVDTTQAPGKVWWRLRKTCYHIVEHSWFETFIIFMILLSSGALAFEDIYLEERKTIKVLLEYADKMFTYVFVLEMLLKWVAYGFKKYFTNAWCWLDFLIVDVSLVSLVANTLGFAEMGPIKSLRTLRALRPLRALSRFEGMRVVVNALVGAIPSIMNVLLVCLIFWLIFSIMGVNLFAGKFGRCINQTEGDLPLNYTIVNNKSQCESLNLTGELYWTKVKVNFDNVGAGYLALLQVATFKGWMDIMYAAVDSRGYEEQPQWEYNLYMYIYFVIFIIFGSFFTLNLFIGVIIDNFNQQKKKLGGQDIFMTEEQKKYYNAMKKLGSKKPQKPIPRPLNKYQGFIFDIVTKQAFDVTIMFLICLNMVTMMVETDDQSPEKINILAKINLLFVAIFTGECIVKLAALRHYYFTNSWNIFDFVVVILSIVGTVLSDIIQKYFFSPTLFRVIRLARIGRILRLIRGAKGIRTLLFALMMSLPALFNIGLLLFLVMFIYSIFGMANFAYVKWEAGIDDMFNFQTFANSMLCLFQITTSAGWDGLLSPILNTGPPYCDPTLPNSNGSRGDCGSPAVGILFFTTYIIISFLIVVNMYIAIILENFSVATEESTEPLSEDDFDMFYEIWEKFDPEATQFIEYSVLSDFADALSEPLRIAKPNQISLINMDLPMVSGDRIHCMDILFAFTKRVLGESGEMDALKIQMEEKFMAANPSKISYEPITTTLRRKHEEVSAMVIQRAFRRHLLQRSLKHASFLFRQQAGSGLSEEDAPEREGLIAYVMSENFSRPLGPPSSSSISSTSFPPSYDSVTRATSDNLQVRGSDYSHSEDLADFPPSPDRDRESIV
Method: (§2) SafetyScan44 assay was performed by DiscoverX according to service provider’s protocol.

COX1 = molecular target: T2, COX1 (Homo sapiens, UniProt P23219); experiment: SafetyScan44; assay type: cell-based; details: 10 μM; Inhibitor mode
T2 construct: purchased DiscoverX (Eurofins) SafetyScan44
T2 sequence (P23219 24-599): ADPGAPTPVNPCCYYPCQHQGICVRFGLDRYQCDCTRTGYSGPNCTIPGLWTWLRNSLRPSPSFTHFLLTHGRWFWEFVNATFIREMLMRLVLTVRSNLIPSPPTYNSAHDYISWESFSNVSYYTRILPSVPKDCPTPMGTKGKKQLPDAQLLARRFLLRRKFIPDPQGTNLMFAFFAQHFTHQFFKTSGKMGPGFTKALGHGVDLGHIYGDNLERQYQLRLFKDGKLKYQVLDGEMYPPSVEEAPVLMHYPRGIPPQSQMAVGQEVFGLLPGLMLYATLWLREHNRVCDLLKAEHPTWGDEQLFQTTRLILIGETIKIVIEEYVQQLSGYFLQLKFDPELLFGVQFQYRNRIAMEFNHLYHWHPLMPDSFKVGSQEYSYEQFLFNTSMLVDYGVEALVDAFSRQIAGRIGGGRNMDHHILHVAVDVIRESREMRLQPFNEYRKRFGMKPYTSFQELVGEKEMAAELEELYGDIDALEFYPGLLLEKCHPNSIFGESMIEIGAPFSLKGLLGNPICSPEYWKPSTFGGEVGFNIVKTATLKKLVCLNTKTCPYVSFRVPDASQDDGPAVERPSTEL
Method: as §2

DRD2S = molecular target: T3, DRD2S (Homo sapiens, UniProt P14416); experiment: SafetyScan44; assay type: cell-based; details: 10 μM
T3 construct: purchased DiscoverX (Eurofins) SafetyScan44
T3 sequence (P14416 1-414 isoform P14416-2): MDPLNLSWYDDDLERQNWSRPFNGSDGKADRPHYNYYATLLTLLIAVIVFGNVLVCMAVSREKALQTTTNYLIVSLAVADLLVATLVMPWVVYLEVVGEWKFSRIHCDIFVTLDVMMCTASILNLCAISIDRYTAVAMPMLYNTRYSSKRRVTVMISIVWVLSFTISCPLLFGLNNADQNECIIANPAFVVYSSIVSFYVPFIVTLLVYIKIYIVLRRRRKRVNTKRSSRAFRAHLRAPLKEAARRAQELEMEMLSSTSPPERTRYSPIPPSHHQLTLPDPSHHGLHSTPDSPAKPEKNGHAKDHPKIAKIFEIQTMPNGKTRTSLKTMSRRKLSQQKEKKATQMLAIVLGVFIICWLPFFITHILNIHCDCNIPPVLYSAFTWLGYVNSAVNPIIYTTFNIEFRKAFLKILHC
Method: as §2

INSR = molecular target: T4, INSR (Homo sapiens, UniProt P06213); experiment: SafetyScan44; assay type: cell-based; details: 10 μM; Inhibitor mode
T4 construct: purchased DiscoverX (Eurofins) SafetyScan44
Method: as §2

HTR1A = molecular target: T5, HTR1A (Homo sapiens, UniProt P08908); experiment: SafetyScan44; assay type: cell-based; details: 10 μM
T5 construct: purchased DiscoverX (Eurofins) SafetyScan44
T5 sequence (P08908 whole entry): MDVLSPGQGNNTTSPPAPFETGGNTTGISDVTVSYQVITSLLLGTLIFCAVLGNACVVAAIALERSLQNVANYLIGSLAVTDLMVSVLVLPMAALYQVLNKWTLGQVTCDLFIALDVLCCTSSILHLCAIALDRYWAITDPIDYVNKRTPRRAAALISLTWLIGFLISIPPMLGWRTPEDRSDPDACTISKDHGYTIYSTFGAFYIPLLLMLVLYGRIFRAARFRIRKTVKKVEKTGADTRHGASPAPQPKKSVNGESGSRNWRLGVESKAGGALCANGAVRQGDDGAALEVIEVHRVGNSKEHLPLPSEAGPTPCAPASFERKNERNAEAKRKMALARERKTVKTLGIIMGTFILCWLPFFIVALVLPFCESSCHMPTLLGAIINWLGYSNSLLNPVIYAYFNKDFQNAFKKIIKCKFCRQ
Method: as §2

ADRB2 = molecular target: T6, ADRB2 (Homo sapiens, UniProt P07550); experiment: SafetyScan44; assay type: cell-based; details: 10 μM
T6 construct: purchased DiscoverX (Eurofins) SafetyScan44
T6 sequence (P07550 whole entry): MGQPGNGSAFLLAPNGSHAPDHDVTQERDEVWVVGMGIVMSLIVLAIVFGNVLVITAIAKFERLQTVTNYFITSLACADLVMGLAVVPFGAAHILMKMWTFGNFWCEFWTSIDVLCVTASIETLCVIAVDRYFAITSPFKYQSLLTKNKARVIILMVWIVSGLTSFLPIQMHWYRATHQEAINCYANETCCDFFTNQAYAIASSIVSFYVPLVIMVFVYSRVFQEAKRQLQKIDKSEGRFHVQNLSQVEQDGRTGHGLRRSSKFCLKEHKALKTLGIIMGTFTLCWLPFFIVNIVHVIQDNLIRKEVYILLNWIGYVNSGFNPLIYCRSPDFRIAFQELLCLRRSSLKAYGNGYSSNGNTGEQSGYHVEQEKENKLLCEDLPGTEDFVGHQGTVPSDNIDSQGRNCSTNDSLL
Method: as §2

basophils = experiment: Basophils activation (Flow CAST Basophil Activation Test); assay type: cell-based, human; details: for IC50: anti-FcεRI antibody; for IgE (basophil activation, Fig 4D): concentration 0 = 100
Method: The study was performed using Flow CAST Basophil Activation Test (Buhlmann) according to manufacturer’s protocol with modifications. In brief to U bottom 96-well plate 50 μl of stimulus solution (stimulating antibody specific for the high-affinity IgE receptor FcεRI) or assay bufferwas added. Subsequently to some wells, 50 μl of inhibitor at different concentrations in assay buffer was added. In the next step 50 μl of EDTA collected fresh human blood was added to each well followed by 50 μl of staining reagent (diluted 2:3 in assay buffer). The cells were incubated for 25 min at 37°Cin humidified incubator in the presence of 5% CO2. After incubation cells were centrifuged and erythrocytes were lysed with pre-warmed (18–28°C) Lysing Reagent. After centrifugation cells were suspended in Wash Buffer and analysed by FACSCalibur. Data were analysed using CellQuestPro and FlowJo software.

[2] = Method: Unless otherwise stated, all chemicals and materials were ordered from Merck Life Science. Each biological replicate was prepared in triplicates. […] The negative control contained buffer instead of NADPH solution. Samples were collected at 0, 10, 20 and 40 min or 0 and 40 min for the negative and double negative controls. The reaction was stopped by protein precipitation in 2 volumes of ice cold MeOH with 200 nM imipramine (as an internal standard for LC-MS analysis). Then, the extract was mixed (1 min, 1000 rpm), filtered through 0.22 μm filter on 96-well plate vacuum manifold and subjected to LC-MS analysis. Metabolic stability in mouse and human cryopreserved hepatocytes was performed in suspension on 96-well tissue culture plates at 1 μM concentration in Williams medium E with CM4000 supplements (ThermoFisher Scientific). Cells were thawed according to the manufacturers manual, counted and preincubated for 30 min in a CO2 incubator (5% CO2, 37 °C, 5 · 10^4 cells/well). For the negative control cells were thermally inactivated for 5 min at 95 °C. Similarly to microsomal stability, experiments were done in technical triplicates, with the additional time point at 80’. Samples for LC-MS analysis were prepared as described for microsomes. Intrinsic clearance (Clint) was calculated using the rate of compound disappearance from the reaction. The elimination rate constant (k) was calculated as a module of slope of the linear regression from ln [substrate] vs time. Then, clearance was calculated as Clint = k/d, where d is protein or cell density for microsomal and hepatocyte stability, respectively.
The mobile phases were (A) 10 mM ammonium acetate pH 5.4 in water and (B) methanol. Samples were eluted using a timed, linear gradient from 30% B at 0 min to 90% B at 1.5 min then a hold 90% B to 2.5 min, after it back to initial 30% B to 2.6 min. The columns was equilibrated for up to 5 min. The flow rate was 0.5 mL/min. The injection volume was 3 μL.

neutrophils = experiment: Neutrophil ROS production; assay type: cell-based, human
Method: Neutrophils were isolated using EasySep Direct Human Neutrophil Isolation Kit (StemCell Technologies) from fresh whole blood of healthy donors according to manufacturer’s protocol. Cells were cultured in AIM V medium (Gibco). Cells were loaded for 30 min at 37°C in humidified incubator in the presence of 5% CO2 with DCFDA (2’,7’–dichlorofluorescein diacetate), a fluorescent ROS indicator. Subsequently neutrophils were treated for 15 min with CPL302-253 and dexamethasone. In the next step 20 ng/ml of human GM-CSF (StemCell Technologies) was added to prime cells. 15 min later 1 μg/ml LPS from E. coli O55:B5 (Sigma-Aldrich) was added to induce ROS generation. The ROS accumulation in the neutrophils was assessed on FACSCalibur 2 h after LPS stimulation.

**Q.** Which AC50 at 48 h (in vitro) does the source give for `CC(C)(C)N1CCN(Cc2cc3nc(-c4cncc5[nH]ccc45)cc(N4CCOCC4)n3n2)CC1` [CPL302-253] here?
**A.** Its AC50 at 48 h is > 100000 nM.

**Q.** What about the AC50 [1] of the same molecule?
**A.** The AC50 was > 100000 nM.

**Q.** And the “MEC Cell count” value [1]?
**A.** Its value is 50.6 µM.

**Q.** What about the “MEC DNA structure” value [1] of the same molecule?
**A.** The value was 24.4 µM.

**Q.** And the “MEC Glutathione content” value [1]?
**A.** The value was 10.6 µM.

**Q.** And the “MEC Mitochondrial mass” value [1]?
**A.** Its value is 20.8 µM.

**Q.** And the “MEC Mitochondrial membrane potential” value [1]?
**A.** The value was 22.8 µM.

**Q.** What about the “MEC Nuclear size” value [1] of the same molecule?
**A.** Its value is 75.3 µM.

**Q.** And the “MEC Oxidative stress” value [1]?
**A.** Its value is 16.1 µM.

**Q.** What about the “lowest concentration influencing any cell health parameter” value [1] of the same molecule?
**A.** Its value is ≥ 10 µM.

**Q.** And the “% Response NAV1.5 Blocker” value (NAV1.5)?
**A.** Its value is 9.7%.

**Q.** What about the “% Response COX1 Inhibitor” value (COX1) of the same molecule?
**A.** The value was 4.7%.

**Q.** And the “% Response DRD2S Agonist” value (DRD2S; Agonist mode)?
**A.** The value was -4.5%.

**Q.** And the “% Response DRD2S Antagonist” value (DRD2S; Antagonist mode)?
**A.** The value was -1.1%.

**Q.** And the “% Response INSR Inhibitor” value (INSR)?
**A.** Its value is -6.5%.

**Q.** And the “% Response HTR1A Agonist” value (HTR1A; Agonist mode)?
**A.** Its value is 5.6%.

**Q.** And the “% Response HTR1A Antagonist” value (HTR1A; Antagonist mode)?
**A.** Its value is -4.8%.

**Q.** What about the “% Response ADRB2 Agonist” value (ADRB2; Agonist mode) of the same molecule?
**A.** Its value is 0.5%.

**Q.** And the “% Response ADRB2 Antagonist” value (ADRB2; Antagonist mode)?
**A.** Its value is 17.7%.

**Q.** What about the IC50 (basophils; 25 min, human whole blood, 25 min, read-out: IC50 CD63 expression after basophils activation) of the same molecule?
**A.** The IC50 was 36 nM.

**Q.** And the “IgE (basophil activation, Fig 4D)” value (basophils; Concentration 1 (unit not given))?
**A.** The value was 93.65.

**Q.** What about the “IgE (basophil activation, Fig 4D)” value (basophils; Concentration 3 (unit not given)) of the same molecule?
**A.** Its value is 103.18.

**Q.** And the “IgE (basophil activation, Fig 4D)” value (basophils; Concentration 10 (unit not given))?
**A.** The value was 85.97.

**Q.** What about the “IgE (basophil activation, Fig 4D)” value (basophils; Concentration 33 (unit not given)) of the same molecule?
**A.** The value was 51.03.

**Q.** What about the “IgE (basophil activation, Fig 4D)” value (basophils; Concentration 100 (unit not given)) of the same molecule?
**A.** The value was 22.

**Q.** What about the “IgE (basophil activation, Fig 4D)” value (basophils; Concentration 333 (unit not given)) of the same molecule?
**A.** The value was 3.87.

**Q.** And the “IgE (basophil activation, Fig 4D)” value (basophils; Concentration 1000 (unit not given))?
**A.** The value was -1.11.

**Q.** And the “IgE (basophil activation, Fig 4D)” value (basophils; Concentration 3333 (unit not given))?
**A.** Its value is 5.06.

**Q.** And the “IgE (basophil activation, Fig 4D)” value (basophils; Concentration 10000 (unit not given))?
**A.** The value was -1.49.

**Q.** And the IC50 (basophils; Homo sapiens, basophil CD63 expression, read-out: IC50 (Fig 4D, printed in the picture))?
**A.** The IC50 was 36.2 nM.

**Q.** What about the “degradation in human hepatocytes” value [2] of the same molecule?
**A.** Its value is “degradation was not observed at all”.

**Q.** What about the “Clint, times lower when compared to verapamil” value ([2]; CD-1, mouse, 1 μM) of the same molecule?
**A.** Its value is ~30 times.

**Q.** And the “Clint (Fig 5D), single replicates” value ([2]; human, 1 μM)?
**A.** The value was 0.

**Q.** And the “Clint, times lower when compared to verapamil” value ([2]; human, 1 μM)?
**A.** The value was ~70 times.

**Q.** What about the “degradation, fold slower as compared to verapamil” value ([2]; mouse, 1 μM) of the same molecule?
**A.** The value was 11 fold.

**Q.** And the “neutrophils stained positively by ROS fluorescent indicator (Fig 4C), single replicates” value (neutrophils; GM-CSF 20 ng/ml and LPS 1 μg/ml, 2 h)?
**A.** Its value is 52 and 10 and 17 and 22 and 2 and 9.

**Q.** What about the “ROS accumulation in neutrophils” value (neutrophils; GMCSF/LPS stimulation) of the same molecule?
**A.** Its value is “reduced ROS accumulation”.
